Reference: PubChem BioAssay (NCI)
“And” between values parts separate entries of the source, which are not always exact repeats. Identical values can stand only once.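 Where inhibition never reached the appropriate level, the endpoint shown equals the highest concentration tested. Otherwise, values were interpolated linearly from a five-concentration, 48-hour dose response in 96-well plates. The concentration for 50% growth inhibition is given as GI50. TGI denotes the concentration required for complete inhibition of growth.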

Assays:
Test in all cases: NCI-60 cell line screen, 48 h
HCT-15 colon = test system: HCT-15 colon
SF-539 CNS = test system: SF-539 CNS
SNB-19 CNS = test system: SNB-19 CNS
HT29 colon = test system: HT29 colon
RPMI-8226 leukemia = test system: RPMI-8226 leukemia
NCI-H23 lung = test system: NCI-H23 lung
TK-10 renal = test system: TK-10 renal
HOP-92 NSCLC = test system: HOP-92 NSCLC
U251 CNS = test system: U251 CNS
HCC-2998 colon = test system: HCC-2998 colon
CAKI-1 renal = test system: CAKI-1 renal
MDA-MB-231 breast = test system: MDA-MB-231 breast
KM12 colon = test system: KM12 colon
ACHN renal = test system: ACHN renal
MCF7 breast = test system: MCF7 breast
OVCAR-8 ovarian = test system: OVCAR-8 ovarian
LOX IMVI melanoma = test system: LOX IMVI melanoma
K-562 leukemia = test system: K-562 leukemia
PC-3 prostate = test system: PC-3 prostate
OVCAR-3 ovarian = test system: OVCAR-3 ovarian
SW-620 colon = test system: SW-620 colon
RXF 393 renal = test system: RXF 393 renal
OVCAR-4 ovarian = test system: OVCAR-4 ovarian
HS 578T breast = test system: HS 578T breast
NCI-H522 lung = test system: NCI-H522 lung
786-0 renal = test system: 786-0 renal
SN12C renal = test system: SN12C renal
MALME-3M melanoma = test system: MALME-3M melanoma
BT-549 breast = test system: BT-549 breast
IGROV1 ovarian = test system: IGROV1 ovarian
A549 NSCLC = test system: A549 NSCLC
M14 melanoma = test system: M14 melanoma
EKVX NSCLC = test system: EKVX NSCLC
SF-268 CNS = test system: SF-268 CNS
UACC-257 melanoma = test system: UACC-257 melanoma
SK-MEL-28 melanoma = test system: SK-MEL-28 melanoma
MDA-MB-435 = test system: MDA-MB-435
CCRF-CEM leukemia = test system: CCRF-CEM leukemia
OVCAR-5 ovarian = test system: OVCAR-5 ovarian
NCI/ADR-RES ovarian = test system: NCI/ADR-RES ovarian
NCI-H460 lung = test system: NCI-H460 lung
T-47D breast = test system: T-47D breast
HCT-116 colon = test system: HCT-116 colon
HOP-62 NSCLC = test system: HOP-62 NSCLC
DU-145 prostate = test system: DU-145 prostate
UACC-62 melanoma = test system: UACC-62 melanoma
SK-OV-3 ovarian = test system: SK-OV-3 ovarian
SK-MEL-2 melanoma = test system: SK-MEL-2 melanoma
UO-31 renal = test system: UO-31 renal
NCI-H226 lung = test system: NCI-H226 lung
SK-MEL-5 melanoma = test system: SK-MEL-5 melanoma
COLO 205 colon = test system: COLO 205 colon
A498 renal = test system: A498 renal
MOLT-4 leukemia = test system: MOLT-4 leukemia
SR leukemia = test system: SR leukemia
SNB-75 CNS = test system: SNB-75 CNS
SF-295 CNS = test system: SF-295 CNS
HL-60(TB) leukemia = test system: HL-60(TB) leukemia

Cc1cnc(NC(=O)Nc2cc(Br)c(C)cc2OC[C@@H]2CNCCO2)cn1
GI50 (HCT-15 colon): 1.65 µM and 2.38 µM | TGI (HCT-15 colon): > 10 µM and 12.8 µM | GI50 (SF-539 CNS): 0.457 µM and 0.281 µM | TGI (SF-539 CNS): 3.87 µM and 0.805 µM | GI50 (SNB-19 CNS): 2.52 µM and 1.42 µM | TGI (SNB-19 CNS): > 10 µM and 14.3 µM | GI50 (HT29 colon): 1.95 µM and 2.59 µM | TGI (HT29 colon): > 10 µM and 10.1 µM | GI50 (RPMI-8226 leukemia): 3.05 µM and 1.52 µM | TGI (RPMI-8226 leukemia): > 10 µM and 8.52 µM | GI50 (NCI-H23 lung): 0.466 µM and 0.548 µM | TGI (NCI-H23 lung): > 10 µM and 9.42 µM | GI50 (TK-10 renal): 0.703 µM and 2.18 µM | TGI (TK-10 renal): > 10 µM and 16.6 µM | GI50 (HOP-92 NSCLC): 0.546 µM and 0.389 µM | TGI (HOP-92 NSCLC): > 10 µM and 5.72 µM | GI50 (U251 CNS): 2.44 µM and 3.07 µM | TGI (U251 CNS): > 10 µM and 13.9 µM | GI50 (HCC-2998 colon): 0.468 µM and 0.493 µM | TGI (HCC-2998 colon): > 10 µM and 5.28 µM | GI50 (CAKI-1 renal): 1.74 µM and 0.852 µM | TGI (CAKI-1 renal): > 10 µM and 6.16 µM | GI50 (MDA-MB-231 breast): 2.96 µM and 1.48 µM | TGI (MDA-MB-231 breast): > 10 µM and 7.39 µM | GI50 (KM12 colon): 1.2 µM and 1.19 µM | TGI (KM12 colon): > 10 µM and 11.9 µM | GI50 (ACHN renal): 0.319 µM and 0.225 µM | GI50 (MCF7 breast): 0.431 µM and 0.418 µM | TGI (MCF7 breast): > 10 µM and 6.15 µM | GI50 (OVCAR-8 ovarian): 0.666 µM and 0.664 µM | TGI (OVCAR-8 ovarian): > 10 µM and 12.8 µM | GI50 (LOX IMVI melanoma): 0.828 µM and 1.45 µM | TGI (LOX IMVI melanoma): 2.46 µM and 4.97 µM | GI50 (K-562 leukemia): 0.466 µM and 0.419 µM | TGI (K-562 leukemia): 6.27 µM and 2.5 µM | GI50 (PC-3 prostate): 5.77 µM and 3.73 µM | TGI (PC-3 prostate): > 10 µM and 16.4 µM | GI50 (OVCAR-3 ovarian): 1.37 µM and 1.13 µM | TGI (OVCAR-3 ovarian): > 10 µM and 10.2 µM | GI50 (SW-620 colon): 3.68 µM and 3.28 µM | TGI (SW-620 colon): > 10 µM and 13.4 µM | GI50 (RXF 393 renal): 0.564 µM and 0.219 µM | GI50 (OVCAR-4 ovarian): 5.85 µM and 1.05 µM | TGI (OVCAR-4 ovarian): > 10 µM and 15.5 µM | GI50 (HS 578T breast): 0.572 µM and 0.771 µM | TGI (HS 578T breast): > 10 µM and 8.82 µM | GI50 (NCI-H522 lung): 2.1 µM and 2.46 µM | TGI (NCI-H522 lung): > 10 µM and 11.5 µM | GI50 (786-0 renal): 0.417 µM and 0.353 µM | TGI (786-0 renal): > 10 µM and 5 µM | GI50 (SN12C renal): 3.8 µM and 2.5 µM | TGI (SN12C renal): > 10 µM and 12.1 µM | GI50 (MALME-3M melanoma): 1.63 µM and 1.94 µM | TGI (MALME-3M melanoma): > 10 µM and 6.55 µM | GI50 (BT-549 breast): 1.28 µM and 1.29 µM | TGI (BT-549 breast): > 10 µM and 13.6 µM | GI50 (IGROV1 ovarian): 0.979 µM and 1.36 µM | TGI (IGROV1 ovarian): > 10 µM and 17 µM | GI50 (A549 NSCLC): 1.71 µM and 1.93 µM | TGI (A549 NSCLC): > 10 µM and 15.8 µM | GI50 (M14 melanoma): 0.338 µM and 0.311 µM | TGI (M14 melanoma): 1.37 µM and 0.999 µM | GI50 (EKVX NSCLC): 3.22 µM and 3.24 µM | TGI (EKVX NSCLC): > 10 µM and 15.9 µM | GI50 (SF-268 CNS): 3.66 µM and 2.33 µM | TGI (SF-268 CNS): > 10 µM and 13.6 µM | GI50 (UACC-257 melanoma): 1.59 µM and 2.44 µM | TGI (UACC-257 melanoma): 3.59 µM and 8.37 µM | GI50 (SK-MEL-28 melanoma): 2.21 µM and 2.44 µM | TGI (SK-MEL-28 melanoma): 6.65 µM and 6.88 µM | GI50 (MDA-MB-435): 0.459 µM and 0.378 µM | TGI (MDA-MB-435): 3.58 µM and 2.43 µM | GI50 (CCRF-CEM leukemia): 0.321 µM and 0.259 µM | TGI (CCRF-CEM leukemia): 9.48 µM and 1.23 µM | GI50 (OVCAR-5 ovarian): 2.1 µM and 1.96 µM | TGI (OVCAR-5 ovarian): > 10 µM and 13.4 µM | GI50 (NCI/ADR-RES ovarian): 0.841 µM and 0.679 µM | TGI (NCI/ADR-RES ovarian): > 10 µM and 11.7 µM | GI50 (NCI-H460 lung): 1.47 µM and 0.928 µM | TGI (NCI-H460 lung): > 10 µM and 5.79 µM | GI50 (T-47D breast): 2.88 µM and 7.86 µM | TGI (T-47D breast): > 10 µM and 22.3 µM | GI50 (HCT-116 colon): 3.09 µM and 3.35 µM | TGI (HCT-116 colon): > 10 µM and 13.3 µM | GI50 (HOP-62 NSCLC): 0.539 µM and 1.65 µM | TGI (HOP-62 NSCLC): > 10 µM and 14.2 µM | GI50 (DU-145 prostate): 2.08 µM and 0.659 µM | TGI (DU-145 prostate): > 10 µM and 11.5 µM | GI50 (UACC-62 melanoma): 1.19 µM | TGI (UACC-62 melanoma): 6.82 µM | GI50 (SK-OV-3 ovarian): 0.916 µM and 0.474 µM | TGI (SK-OV-3 ovarian): > 10 µM and 12.3 µM | GI50 (SK-MEL-2 melanoma): 0.55 µM and 0.653 µM | TGI (SK-MEL-2 melanoma): > 10 µM and 13 µM | GI50 (UO-31 renal): 0.483 µM and 1.06 µM | TGI (UO-31 renal): > 10 µM and 12 µM | GI50 (NCI-H226 lung): 5.84 µM | TGI (NCI-H226 lung): > 10 µM and 20.8 µM | GI50 (SK-MEL-5 melanoma): 1.43 µM and 1.09 µM | TGI (SK-MEL-5 melanoma): 4.22 µM and 2.92 µM | GI50 (COLO 205 colon): 2.58 µM and 2.72 µM | TGI (COLO 205 colon): 9.03 µM and 8.55 µM | GI50 (A498 renal): 0.33 µM and 0.0894 µM | GI50 (MOLT-4 leukemia): 0.445 µM and 0.368 µM | TGI (MOLT-4 leukemia): > 10 µM and 3.9 µM | GI50 (SR leukemia): 0.306 µM and 0.196 µM | TGI (SR leukemia): 1.66 µM and 3.72 µM | GI50 (SNB-75 CNS): 4.61 µM and 2.95 µM | TGI (SNB-75 CNS): > 10 µM and 15.8 µM | GI50 (SF-295 CNS): 0.326 µM and 0.263 µM | TGI (SF-295 CNS): > 10 µM and 3.02 µM | GI50 (HL-60(TB) leukemia): 0.388 µM and 0.545 µM | TGI (HL-60(TB) leukemia): 5.46 µM and 2.43 µM
